Like-named read-outs stand apart in the source and are kept apart here.
What was measured:
[1] = type: in vivo; settings: for distribution / route of excretion/elimination: metabolite
[2] = test system: yeast induced hypertermia; assay: Yeast induced hypertermia test (antipyretic activity); type: in vivo, rat
From the text: This activity has been investigated by means of the yeast induced hypertermia test in the rat, taking again acetylsalycilic acid, administered at equimolecular dosages, as the comparison substance.

[3] = test system: carrageenin induced edema; assay: Carrageenin induced edema test (antinflammatory activity); type: in vivo, rats; settings: for reduction of the edema / antiinflammatory action compared with acetylsalicylic acid (in words): oral, equimolecular dosages
From the text: The antinflammatory properties of MR 693 have been investigated by means of the carrageenin induced edema test in rats, by administering the compound of the invention by oral route and using acetylsalycilic acid as the comparison substance, at equimolecular dosages.

gastric mucosa = assay: Gastrolesive activity after oral administration; type: in vivo, rats; settings: for gastric tolerability / gastrolesive effect (in words): oral
Protocol: MR 693 and acetylsalycilic acid as the comparison substance were administered by oral route to rats fastened from at least 18 hours.
After six hours from the beginning of the experiment, the rats were sacrificed and the stomachs were opened and examined in order to verify the presence of lesions on the gastric mucosa.

[4] = test system: citric acid aerosol induced cough; assay: Citric acid aerosol induced cough test (antitussive activity); settings: for antitussive activity compared with codeine (in words): 500 mg/kg oral vs codeine 25 mg/kg oral, general statement in b2
rats [5] = assay: Theratogenesis studies in rats; type: in vivo; settings: oral, all along the pregnancy
From the text: (§1) Theratogenesis studies have been carried out on rats and rabbits, which have been treated by oral route with MR 693 all along the duration of the pregnancy. […]
(§2) number of pregnant females […]
(§3) initial body weight/end body weight (of the mothers) […]
(§4) average number of lived foetuses total number of dead foetuses total number of re-absorptions average weight of lived foetuses

Acute toxicity in rats = settings: in vivo, rat, read-out: DL50 (the source's name)
From the text: (§5) Acute toxicity tests have been carried out in mice rats, by administering the compound of the invention by oral and intraperitoneal route.

rabbits = assay: Theratogenesis studies in rabbits; type: in vivo; settings: oral, all along the pregnancy
From the text: as §1, §2, §3, §4

Acute toxicity in mice = settings: in vivo, po; mouse, os; read-out: DL50 (the source's name)
From the text: as §5

dogs [6] = assay: Chronic toxicity in dogs, oral and rectal, 24 weeks; type: in vivo
From the text: (§6) Chronic toxicity studies have been carried out on rats, administered by oral route with MR 693 for 24 consecutive weeks, and dogs, administered by oral and rectal route with the compound of the invention again for 24 weeks.
(§7) The parameters which have been taken into consideration are as follows:
(§8) biochemical examination of the blood glycosuria, proteinuria, haematuria, albuminuria
(§9) weight and hystological control of the principal organs;

esterase = assay: In vitro metabolism (enzymatic hydrolysis); type: in vitro ADME
From the text: Studies have been performed both in vitro and in vivo.

rats [7] = assay: Subacute toxicity in rats, oral, four weeks; type: in vivo; settings: four consecutive weeks
From the text: (§10) Subacute toxicity studies have been carried out on rats and dogs, by administering MR 693 by oral route for four consecutive weeks.
as §7
(§11) glycosuria, proteinuria, albuminuria and haematuria
(§12) weight of the principal organs

[8] = Toxicity, overall statement (acute, subacute and chronic); type: in vivo
From the text: as §5, §10, §6

rats [9] = assay: Chronic toxicity in rats, oral, 24 weeks; type: in vivo
From the text: as §6, §7, §8, §9

dogs [10] = assay: Subacute toxicity in dogs, oral, four weeks; type: in vivo; settings: four consecutive weeks
From the text: as §10, §7, §11, §12

[11] = 250 mg/kg os (equimolecular dosage)
[12] = 400 mg/kg os (equimolecular dosage)
[13] = listed as 3-(2-methoxy-phenoxy)-3-methyl-benzo-2,4-dioxacyclohexanone

CC(=O)Oc1ccccc1C(=O)O [Acetylsalycilic acid, acetylsalicylic acid, reference compound]
concentration observed in the lungs compared with plasma and liver ([1]; in vivo): higher than those observed in the plasma and the liver | distribution ([1]; after administration of MR 693): enter the systemic circulation | % Inhibition (yeast induced hypertermia) [2, 11]: 103% | % Inhibition of the edema [3, 11]: 33% | Average diameter of the lesions (gastric mucosa; 250 mg/kg os, six hours (equimolecular dosage)): 3.7 ± 0.8 mm

COc1ccc2c3c1O[C@H]1[C@@H](O)C=C[C@H]4[C@@H](C2)N(C)CC[C@@]341 [Codeine, codeine, reference compound]
% Inhibition of cough-strokes ([4]; 12.5 mg/kg i.p.): 93.7% | % Inhibition of cough-strokes ([4]; 25 mg/kg os): 76.7% | inhibition at 12.5 mg/kg ([4]; Cavia porcellus, ip, read-out: % Inhibition of cough-strokes, 12.5 mg/kg i.p.): 93%

COc1ccccc1OC1(C)OC(=O)c2ccccc2O1 (stereo not drawn) [MR 693, 3-(2-methoxy-phenoxy)-3-methyl-benzo-2,4-dioxacyclohexanone]
pulmonary tropism ([1]; in vivo): relative better pulmonary tropism | absorption ([1]; in vivo, po): absorbed as such for the major part | metabolites in vivo ([1]; in vivo, po): hydrolyzed to acetylsalycilic acid, salycilic acid and guaiacol | theratogenesis: alterations (rats [5]): no alteration | theratogenesis: number of litters alive (rats [5]): no variation of the number of litters alive | theratogenesis: somatic or skeletal malformations (rats [5]): neither somatic not skeletal malformations have been observed | LD50 (Acute toxicity in rats; ip, i.p.): 1750 mg/kg | LD50 (Acute toxicity in rats; po, os): > 3000 mg/kg | theratogenesis: alterations (rabbits): no alteration | theratogenesis: number of litters alive (rabbits): no variation of the number of litters alive | theratogenesis: somatic or skeletal malformations (rabbits): neither somatic not skeletal malformations have been observed | % Inhibition (yeast induced hypertermia) [2, 12]: 86% | antipyretic activity compared with acetylsalicylic acid (in words) ([2]; oral, equimolecular dosages, listed as 3-(2-methoxy-phenoxy)-3-methyl-benzo-2,4-dioxacyclohexanone): only slightly lower than that displayed, again, by acetylsalicylic acid | LD50 (Acute toxicity in mice): > 3000 mg/kg | alteration of the mucosae of the gastro-intestinal tract (dogs [6]): did not show any alteration of the mucosae | alterations or anatomo-pathological states (chronic toxicity) (dogs [6]): no alterations or particularly significant anatomo-pathological states | enzymatic hydrolysis (metabolites) (esterase): enzymatically hydrolyzed to acetylsalycilic acid and guaiacol | organs displaying the highest esterase activity (esterase): the lungs and the kidneys | % Inhibition of the edema [3, 12]: 30% | reduction of the edema / antiinflammatory action compared with acetylsalicylic acid (in words) [3]: marked reduction of the edema | reduction of the edema / antiinflammatory action compared with acetylsalicylic acid (in words) [3, 13]: practically is the same as that possessed by acetylsalicylic acid | Average diameter of the lesions (gastric mucosa; 100 mg/kg os, six hours): 0 mm | Average diameter of the lesions (gastric mucosa; 400 mg/kg os, six hours (equimolecular dosage)): 0 mm | gastric tolerability / gastrolesive effect (in words) (gastric mucosa): perfectly tolerated at gastric level | gastric tolerability / gastrolesive effect (in words) (gastric mucosa; [13]): complete absence of any gastrolesive effect | alterations or malformations (subacute toxicity) (rats [7]): in no case alterations or malformations ascribable to the treatment | toxicity (in words) [8, 13]: almost negligible toxicity (both acute, subacute and chronic) | toxicity (in words) ([8]; listed as mr 693): very little toxic compound | reduction over the controls of the number of cough-strokes (in words) ([4]; 500 mg/kg oral): marked reduction | antitussive activity compared with codeine (in words) [4]: better than that displayed, under the same conditions, by an oral dosage of 25 mg/kg of codeine | antitussive activity compared with codeine (in words) [4, 13]: higher than that of codeine | % Inhibition of cough-strokes ([4]; 500 mg/kg os): 84.3% | inhibition at 100 mg/kg ([4]; Cavia porcellus, ip, read-out: % Inhibition of cough-strokes): 100% | alterations or anatomo-pathological states (chronic toxicity) (rats [9]; 24 consecutive weeks): no alterations or particularly significant anatomo-pathological states | alteration of the mucosae of the gastro-intestinal tract (rats [9]; 24 weeks): did not show any alteration of the mucosae | alterations or malformations (subacute toxicity) (dogs [10]): in no case alterations or malformations ascribable to the treatment

COc1ccccc1O [guaiacol]
pulmonary tropism ([1]; assumed from lung concentrations and pulmonary tropism of guaiacol): marked pulmonary tropism | absorption ([1]; in vivo, after oral administration of MR 693): mainly absorbed by pre-systemic route | distribution ([1]; after administration of MR 693): enters the lungs through the lymphatic vessels | route of excretion/elimination ([1]; after administration of MR 693): eliminated by respiratory route

O=C(O)c1ccccc1O [salycilic acid]
concentration observed in the lungs compared with plasma and liver ([1]; after administration of MR 693): higher than those observed in the plasma and the liver | distribution ([1]; after administration of MR 693): enter the systemic circulation | route of excretion/elimination ([1]; after administration of MR 693): excreted by urinary route
